For orientation: inhibition means how much of the control response was suppressed.

These results are taken from patent EP0146219A1, “Aminophosphonic & aminophosphinic acid derivatives processes for their preparation & herbicidal compositions containing them” (priority 1983, dated 1985).

Counter-ions that a name gives are not always drawn.

The subject of data set [1] is Convolvulus arvensis. The data set is described as follows: soil-applied (pre-emergence) test in planted trays, visual percent inhibition. The settings on record: 336 h, read-out: % inhibition. B; for inhibition at 1000 g/ha: rate 1.0 KG/HECTARE. It counts as in vivo. How it is done:
(§1) Plastic trays were planted with green cynondon dactylon, convolvulus arvensis and sinapis arvensis and covered with a good grade of top soil. All materials were applied with a laboratory sprayer that delivered a volume of 187 1/hectare. The trays of soil were thereafter watered lightly to activate the aminotriazole salts. The experiment was conducted twice and each was arranged in a completely random design with three replications. Visual estimates of percent inhibition were made at two weeks after treatment.

The subject of another data set is cynodon dactylon. The description is as above. The class given is in vivo. The settings on record: 336 h; for inhibition at 1000 g/ha: rate 1.0 KG/HECTARE. As for the experimental part: as §1
The next data set deals with sinapis arvensis. Described as above. The settings on record: Mutarda arvensis, 336 h, read-out: % inhibition. C; for inhibition at 1000 g/ha: rate 1.0 KG/HECTARE. It counts as in vivo. As for the experimental part: as §1
Data set [2] in a line: solubility and crystallization of the salts in water. The class given is physicochemical. The settings on record: for solubility: at room temperature.
The subject of the next data set is various plant species. The data set can be described thus: post-emergence herbicidal activity, overall comparison. The class given is in vivo. The settings on record: for herbicidal activity compared with the related amine (IPA) salt: post-emergence, Tables II and III. An excerpt:
(§2) The spray, a water solution containing active ingredient and a surfactant is applied to the plants in different sets of pans at several rates (kilogram per dunam) of active ingredient. The treated plants are placed in a greenhouse and the effects are observed and recorded after 4 days (table II) and after 2 weeks (table III). The post-emergence herbicidal activity index used in Table II and III is as follows: […]

For data set [3], the system named is Agropyron repens (quackgrass). The data set can be described thus: post-emergence herbicidal activity (spray, greenhouse). Also: key: 0: No injury; 1: Slight injury; 2: Moderate injury; 3: Severe injury; 4: Killed. The following applies: after 2 weeks; spray to 21 day old plants; active ingredient mole/l: I 0.022, II 0.043, III 0.03, IV 0.043, V 0.043. It counts as in vivo.
From the text: as §2

For another data set, the system named is Avena sterilis. Described as above. The class given is in vivo. The following applies: after 2 weeks; spray to 21 day old plants; active ingredient mole/l: I 0.022, II 0.043, III 0.03, IV 0.043, V 0.043. Also: key: 0: No injury; 1: Slight injury; 2: Moderate injury; 3: Severe injury; 4: Killed.
From the text: as §2

The test system of data set [4] is Convolvulus arvensis. The data set is described as above. The class given is in vivo. The settings on record: after 2 weeks; spray to 21 day old plants; active ingredient mole/l: I 0.022, II 0.043, III 0.03, IV 0.043, V 0.043.
From the text: as §2

For the next data set, the system named is Cynodon daotylon. The description is as above. The class given is in vivo. The settings on record: after 2 weeks; spray to 21 day old plants; active ingredient mole/l: I 0.022, II 0.043, III 0.03, IV 0.043, V 0.043. Also: key: 0: No injury; 1: Slight injury; 2: Moderate injury; 3: Severe injury; 4: Killed.
From the text: as §2

The test system of a further data set is Inula Viscosa. Described as above. It counts as in vivo. The settings on record: after 2 weeks; spray to 21 day old plants; active ingredient mole/l: I 0.022, II 0.043, III 0.03, IV 0.043, V 0.043.
From the text: as §2

The test system of a further data set is Pennisetum clandestinum. The data set is described as above. It counts as in vivo. The settings on record: after 2 weeks; spray to 21 day old plants; active ingredient mole/l: I 0.022, II 0.043, III 0.03, IV 0.043, V 0.043.
From the text: as §2

Another data set has as its system Phragmites australis. The description is as above. It counts as in vivo. The settings on record: after 2 weeks; spray to 21 day old plants; active ingredient mole/l: I 0.022, II 0.043, III 0.03, IV 0.043, V 0.043.
From the text: as §2

The subject of another data set is Polygonum equiseliforme. The description is as above. The class given is in vivo. The settings on record: after 2 weeks; spray to 21 day old plants; active ingredient mole/l: I 0.022, II 0.043, III 0.03, IV 0.043, V 0.043.
From the text: as §2

A further data set deals with Rubus Sanguineus. The description is as above. The class given is in vivo. The following applies: after 2 weeks; spray to 21 day old plants; active ingredient mole/l: I 0.022, II 0.043, III 0.03, IV 0.043, V 0.043.
From the text: as §2

The subject of a further data set is Cyperus Rotundus. It counts as in vivo. The following applies: after 2 weeks; spray to 21 day old plants; active ingredient mole/l: I 0.022, II 0.043, III 0.03, IV 0.043, V 0.043. An excerpt: The spray, a water solution containing active ingredient and a surfactant is applied to the plants in different sets of pans at several rates (kilogram per dunam) of active ingredient. […] The post-emergence herbicidal activity index used in Table II and III is as follows: […]

Data set [5] is described as follows: herbicidal activity when applied to the soil (statement in the text). It counts as in vivo. The following applies: soil application.
Where [6] appears, read: rate 0.5 KG/HECTARE, two weeks after treatment.
Where [7] appears, read: rate 1.5 KG/HECTARE, two weeks after treatment.
For post-emergence herbicidal activity index, TABLE III, G in this document: key: 0: No injury; 1: Slight injury; 2: Moderate injury; 3: Severe injury; 4: Killed.

Consider `O=C(O)CNCP(=O)(O)O` [I, Di(3-amino-1,2,4-triazole)NPMG salt], for which the inhibition at 500 g/ha is 80% in the data set on Convolvulus arvensis [1] (setting [6]), 45% in the data set with cynodon dactylon (setting [6]) and 60% in the data set with sinapis arvensis (setting [6]). The inhibition at 1000 g/ha in the data set with Convolvulus arvensis [1] (two weeks after treatment) turned out to be 90%; in the data set on cynodon dactylon (two weeks after treatment), 80%; in the data set with sinapis arvensis (two weeks after treatment), 90%. Further, the crystalization entry in [2] (at 0^oc) is on record as “no crystalization”. Also, the solubility result in data set [2] (listed as NPMG-Diaminotriazole salt) is recorded as “at least 1000 g/1”. For the same compound, the antagonistic interaction result in the data set with various plant species (applied to many species of weed, especially quackgrass) is “no antagonistic interaction”. In addition, the “speed of phytotoxic action (knock down effect)” value with various plant species (first 4 days after application, compared with amine salt IV) was “faster phytotoxic action”. Besides, in the data set with various plant species, the “herbicidal activity compared with the related amine (IPA) salt” value is “at least the same result”.

Consider `CP(=O)(O)CCC(N)C(=O)O` (stereo not drawn) [III, Di(3-amino-1,2,4-triazole)Phosphino-thricine salt.], for which, in data set [3], the “post-emergence herbicidal activity index, TABLE III, J” value was 3. For the same compound, the “post-emergence herbicidal activity index, TABLE III, H” value in the data set on Avena sterilis worked out at 3. The “post-emergence herbicidal activity index, TABLE III, G” value in the data set on Convolvulus arvensis [4] is 3. The “post-emergence herbicidal activity index, TABLE III, F” value with Cynodon daotylon is given as 3. In addition, in the data set with Inula Viscosa, the “post-emergence herbicidal activity index, TABLE III, C” value was 3. The “post-emergence herbicidal activity index, TABLE III, E” value with Pennisetum clandestinum worked out at 3. Further, in the data set on Phragmites australis, the “post-emergence herbicidal activity index, TABLE III, D” value was 2. The “post-emergence herbicidal activity index, TABLE III, A” value with Polygonum equiseliforme was 3. Besides, the “post-emergence herbicidal activity index, TABLE III, B” value in the data set on Rubus Sanguineus came to 3. Besides, in the data set on Cyperus Rotundus, the “post-emergence herbicidal activity index, TABLE III, I” value is listed as 3. The inhibition at 1000 g/ha with Convolvulus arvensis [1] (two weeks after treatment) turned out to be 30%; with cynodon dactylon (two weeks after treatment), 10%; in the data set with sinapis arvensis (two weeks after treatment), 30%. The inhibition at 1500 g/ha with Convolvulus arvensis [1] (setting [7]) was 50%; with cynodon dactylon (setting [7]), 20%; in the data set with sinapis arvensis (setting [7]) it was 60%.

Turning to `O=C(O)CN(CC(=O)O)CP(=O)(O)O` [II, Di(3-amino-1,2,4-triazole)NPMIDA salt], the “post-emergence herbicidal activity index, TABLE III, J” value in data set [3] is recorded as 2. In addition, the “post-emergence herbicidal activity index, TABLE III, H” value in the data set with Avena sterilis turned out to be 3. Besides, in the data set on Convolvulus arvensis [4], the “post-emergence herbicidal activity index, TABLE III, G” value amounted to 2. In addition, the “post-emergence herbicidal activity index, TABLE III, F” value with Cynodon daotylon turned out to be 2. Also, the “post-emergence herbicidal activity index, TABLE III, C” value in the data set with Inula Viscosa is 3. In the data set on Pennisetum clandestinum, the “post-emergence herbicidal activity index, TABLE III, E” value was 3. Moreover, the “post-emergence herbicidal activity index, TABLE III, D” value in the data set on Phragmites australis was 3. Also, the “post-emergence herbicidal activity index, TABLE III, A” value in the data set on Polygonum equiseliforme was 3. Besides, the “post-emergence herbicidal activity index, TABLE III, B” value with Rubus Sanguineus is given as 2. The “post-emergence herbicidal activity index, TABLE III, I” value in the data set with Cyperus Rotundus was 3. Also, the inhibition at 700 g/ha with Convolvulus arvensis [1] came out at 55%; with cynodon dactylon (read-out: % inhibition. A), 40%; in the data set on sinapis arvensis it was 65%. Also, the values for the inhibition at 1200 g/ha with Convolvulus arvensis [1], in the data set with cynodon dactylon (read-out: % inhibition. A) and with sinapis arvensis were 70%, 70% and 80%, respectively. In addition, the “herbicidal activity compared with the related amine (IPA) salt” value in the data set with various plant species is “far more superior activity”.

On to `O=C(O)CNCP(=O)(O)O` [IV, Mono(Isopropylamine)NPMG salt (ROUNDUP^(R)), reference compound], for which the crystalization entry in data set [2] (at lower temperature (0-S^oc)) is on record as “crystalization of the salt may occur”. Also, the solubility in [2] (listed as NPMG.IPA) is given as 480 g/1. Besides, the “herbicidal activity when applied to the soil” value in data set [5] is on record as “little herbicidal activity”.

Turning to `O=C(O)CN(CC(=O)O)CP(=O)(O)O` [V, Mono(Isopropylamine)NPMIDA salt, reference compound], the “post-emergence herbicidal activity index, TABLE III, J” value in [3] stood at 1. For the same compound, the “post-emergence herbicidal activity index, TABLE III, H” value in the data set with Avena sterilis worked out at 1. Besides, in the data set with Convolvulus arvensis [4], the “post-emergence herbicidal activity index, TABLE III, G” value is recorded as 0. Moreover, the “post-emergence herbicidal activity index, TABLE III, F” value in the data set with Cynodon daotylon stood at 0. In the data set on Inula Viscosa, the “post-emergence herbicidal activity index, TABLE III, C” value is given as 2. The “post-emergence herbicidal activity index, TABLE III, E” value with Pennisetum clandestinum was found to be 1. The “post-emergence herbicidal activity index, TABLE III, D” value in the data set with Phragmites australis worked out at 1. Moreover, the “post-emergence herbicidal activity index, TABLE III, A” value with Polygonum equiseliforme is 1. Besides, in the data set on Rubus Sanguineus, the “post-emergence herbicidal activity index, TABLE III, B” value is 1. In addition, the “post-emergence herbicidal activity index, TABLE III, I” value in the data set with Cyperus Rotundus is 1.
